In the NIST ThermoML archive (doi:10.1016/j.jct.2017.02.005):
Where “and” joins values, the source holds several entries; their conditions need not be identical. Identical values can stand only once. Numbers after ± are expanded uncertainties.

Details: Liquid, Ebulliometric method (Recirculating still)

CC(C)O [propan-2-ol]
vapor or sublimation pressure (317.07 K): 17.46 ± 0.22 kPa
vapor or sublimation pressure (317.65 K): 17.98 ± 0.22 kPa
vapor or sublimation pressure (318.1 K): 18.39 ± 0.22 kPa
vapor or sublimation pressure (318.73 K): 19.01 ± 0.22 kPa
vapor or sublimation pressure (319.19 K): 19.48 ± 0.23 kPa
vapor or sublimation pressure (319.72 K): 20.03 ± 0.23 kPa
vapor or sublimation pressure (320.19 K): 20.52 ± 0.23 kPa
vapor or sublimation pressure (320.65 K): 21 ± 0.23 kPa
vapor or sublimation pressure (321.11 K): 21.49 ± 0.23 kPa
vapor or sublimation pressure (321.58 K): 22.03 ± 0.23 kPa
vapor or sublimation pressure (322.07 K): 22.55 ± 0.23 kPa
vapor or sublimation pressure (322.47 K): 23.03 ± 0.23 kPa
vapor or sublimation pressure (322.91 K): 23.52 ± 0.23 kPa
vapor or sublimation pressure (323.32 K): 24.02 ± 0.24 kPa
vapor or sublimation pressure (323.71 K): 24.51 ± 0.24 kPa
vapor or sublimation pressure (324.13 K): 25.03 ± 0.24 kPa
vapor or sublimation pressure (324.49 K): 25.48 ± 0.24 kPa
vapor or sublimation pressure (324.94 K): 26.04 ± 0.24 kPa
vapor or sublimation pressure (325.3 K): 26.52 ± 0.24 kPa
vapor or sublimation pressure (325.72 K): 27.08 ± 0.24 kPa
vapor or sublimation pressure (326.18 K): 27.69 ± 0.24 kPa
vapor or sublimation pressure (326.53 K): 28.19 ± 0.24 kPa
vapor or sublimation pressure (326.99 K): 28.83 ± 0.24 kPa
vapor or sublimation pressure (327.46 K): 29.45 ± 0.25 kPa
vapor or sublimation pressure (327.86 K): 30.08 ± 0.25 kPa
vapor or sublimation pressure (328.47 K): 30.96 ± 0.25 kPa
vapor or sublimation pressure (329.06 K): 31.86 ± 0.25 kPa
vapor or sublimation pressure (329.64 K): 32.76 ± 0.26 kPa
vapor or sublimation pressure (330.26 K): 33.77 ± 0.26 kPa
vapor or sublimation pressure (330.73 K): 34.52 ± 0.26 kPa
vapor or sublimation pressure (331.32 K): 35.48 ± 0.26 kPa
vapor or sublimation pressure (331.83 K): 36.37 ± 0.27 kPa
vapor or sublimation pressure (332.44 K): 37.45 ± 0.27 kPa
vapor or sublimation pressure (332.99 K): 38.41 ± 0.27 kPa
vapor or sublimation pressure (333.5 K): 39.33 ± 0.27 kPa
vapor or sublimation pressure (334.1 K): 40.41 ± 0.28 kPa
vapor or sublimation pressure (334.6 K): 41.44 ± 0.28 kPa
vapor or sublimation pressure (335.12 K): 42.44 ± 0.28 kPa
vapor or sublimation pressure (335.64 K): 43.46 ± 0.28 kPa
vapor or sublimation pressure (336.11 K): 44.38 ± 0.29 kPa
vapor or sublimation pressure (336.55 K): 45.32 ± 0.29 kPa
vapor or sublimation pressure (337.07 K): 46.34 ± 0.29 kPa
vapor or sublimation pressure (337.5 K): 47.28 ± 0.3 kPa
vapor or sublimation pressure (337.98 K): 48.35 ± 0.3 kPa
vapor or sublimation pressure (338.45 K): 49.34 ± 0.29 kPa
vapor or sublimation pressure (338.86 K): 50.25 ± 0.3 kPa
vapor or sublimation pressure (339.3 K): 51.26 ± 0.31 kPa
vapor or sublimation pressure (339.72 K): 52.33 ± 0.31 kPa
vapor or sublimation pressure (340.04 K): 53.01 ± 0.3 kPa
vapor or sublimation pressure (340.43 K): 53.94 ± 0.31 kPa
vapor or sublimation pressure (340.89 K): 55.03 ± 0.31 kPa
vapor or sublimation pressure (341.25 K): 55.92 ± 0.31 kPa
vapor or sublimation pressure (341.69 K): 56.96 ± 0.32 kPa
vapor or sublimation pressure (342.09 K): 58.05 ± 0.33 kPa
vapor or sublimation pressure (342.48 K): 59.04 ± 0.33 kPa
vapor or sublimation pressure (342.82 K): 59.93 ± 0.33 kPa
vapor or sublimation pressure (343.2 K): 60.91 ± 0.33 kPa
vapor or sublimation pressure (343.59 K): 61.94 ± 0.34 kPa
vapor or sublimation pressure (343.96 K): 62.98 ± 0.34 kPa
vapor or sublimation pressure (344.32 K): 63.92 ± 0.34 kPa
vapor or sublimation pressure (344.68 K): 64.96 ± 0.35 kPa
vapor or sublimation pressure (345.05 K): 65.97 ± 0.34 kPa
vapor or sublimation pressure (345.35 K): 66.84 ± 0.36 kPa
vapor or sublimation pressure (345.75 K): 68.03 ± 0.36 kPa
vapor or sublimation pressure (346.13 K): 69.14 ± 0.36 kPa
vapor or sublimation pressure (346.46 K): 70.12 ± 0.36 kPa
vapor or sublimation pressure (347.11 K): 72.04 ± 0.37 kPa
vapor or sublimation pressure (347.79 K): 74.18 ± 0.37 kPa
vapor or sublimation pressure (348.37 K): 75.96 ± 0.37 kPa
vapor or sublimation pressure (348.95 K): 77.81 ± 0.38 kPa
vapor or sublimation pressure (349.61 K): 79.96 ± 0.39 kPa
vapor or sublimation pressure (350.08 K): 81.58 ± 0.4 kPa
vapor or sublimation pressure (350.75 K): 83.94 ± 0.4 kPa
vapor or sublimation pressure (351.21 K): 85.47 ± 0.4 kPa
vapor or sublimation pressure (351.69 K): 87.17 ± 0.41 kPa
vapor or sublimation pressure (352.09 K): 88.63 ± 0.41 kPa
vapor or sublimation pressure (352.54 K): 90.24 ± 0.42 kPa
vapor or sublimation pressure (353.16 K): 92.57 ± 0.43 kPa
vapor or sublimation pressure (353.66 K): 94.46 ± 0.43 kPa
vapor or sublimation pressure (354.2 K): 96.49 ± 0.43 kPa
vapor or sublimation pressure (354.59 K): 98.05 ± 0.44 kPa
vapor or sublimation pressure (355.09 K): 100 ± 0.45 kPa and 100.03 ± 0.45 kPa
vapor or sublimation pressure (355.38 K): 101.28 ± 0.45 kPa
vapor or sublimation pressure (355.93 K): 103.44 ± 0.45 kPa
vapor or sublimation pressure (356.4 K): 105.38 ± 0.46 kPa
vapor or sublimation pressure (356.76 K): 106.91 ± 0.47 kPa
vapor or sublimation pressure (357.16 K): 108.63 ± 0.47 kPa
vapor or sublimation pressure (357.52 K): 110.13 ± 0.47 kPa
vapor or sublimation pressure (357.93 K): 111.88 ± 0.49 kPa
vapor or sublimation pressure (358.35 K): 113.79 ± 0.49 kPa
vapor or sublimation pressure (358.65 K): 115.1 ± 0.5 kPa
vapor or sublimation pressure (358.98 K): 116.64 ± 0.5 kPa
vapor or sublimation pressure (359.43 K): 118.64 ± 0.5 kPa
vapor or sublimation pressure (359.77 K): 120.24 ± 0.52 kPa
vapor or sublimation pressure (360.16 K): 122.11 ± 0.52 kPa
vapor or sublimation pressure (360.57 K): 124.03 ± 0.52 kPa
vapor or sublimation pressure (360.9 K): 125.62 ± 0.52 kPa
vapor or sublimation pressure (361.26 K): 127.36 ± 0.52 kPa
vapor or sublimation pressure (361.62 K): 129.08 ± 0.54 kPa
vapor or sublimation pressure (361.98 K): 130.93 ± 0.55 kPa
vapor or sublimation pressure (362.26 K): 132.35 ± 0.54 kPa
vapor or sublimation pressure (362.52 K): 133.65 ± 0.54 kPa

O [water]
vapor or sublimation pressure (372.81 K): 100 ± 0.65 kPa
vapor or sublimation pressure (372.84 K): 100 ± 0.75 kPa
